Like-named read-outs stand apart in the source and are kept apart here.
Biological target: T1, CRBN (Homo sapiens, UniProt Q96SW2)
T1 construct: endogenous in cells; host or cells: primary human T cells / CD8+ T cells from peripheral blood
Assay: Western blot for expression of CRBN relative to vinculin in human T cells (CRBN degradation)
Type: cell-based
Conditions: for remaining activity at 10 µM / remaining activity at 0.01 µM: read-out: Relative Density of CRBN (% of DMSO); for remaining activity at 0.01 µM: 24 h; for CRBN Degradation ** (WB): grade (+) to (++++) or words, key not given
Text: Bortez=bortezomib; MG132=proteasome inhibitor; MLN4924=NEDD8 inhibitor.
This assay is a standard Western blot assay for expression of CRBN relative to vinculin.
[…] 0.1 percent DMSO was used as a vehicle control.

T1 sequence (Q96SW2 whole entry): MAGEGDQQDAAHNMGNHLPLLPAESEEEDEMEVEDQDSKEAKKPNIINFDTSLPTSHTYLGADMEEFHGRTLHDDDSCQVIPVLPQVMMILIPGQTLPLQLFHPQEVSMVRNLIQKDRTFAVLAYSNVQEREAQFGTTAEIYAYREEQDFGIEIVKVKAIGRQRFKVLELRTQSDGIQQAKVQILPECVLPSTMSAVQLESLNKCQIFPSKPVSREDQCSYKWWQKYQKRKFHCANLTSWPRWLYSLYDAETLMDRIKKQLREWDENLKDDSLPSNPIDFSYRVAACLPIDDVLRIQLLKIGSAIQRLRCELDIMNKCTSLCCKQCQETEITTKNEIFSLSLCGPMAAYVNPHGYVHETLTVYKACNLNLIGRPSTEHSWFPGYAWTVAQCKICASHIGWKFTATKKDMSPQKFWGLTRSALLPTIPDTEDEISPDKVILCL

| SMILES | remaining activity at 10 µM (10uM) [%] | remaining activity at 0.01 µM (10nM, human T cells, 24 hours) [%] | other results |
| --- | --- | --- | --- |
| O=C1CCC(N2Cc3ccc(NC(=O)CCCC(=O)Nc4ccc5c(c4)C(=O)N(C4CCC(=O)NC4=O)C5)cc3C2=O)C(=O)N1 (centres unmarked) [EC2-060, N^1,N^5-bis(2-(2,6-Dioxopiperidin-3-yl)-3-oxoisoindolin-5-yl)glutaramide] | 40.3 | 48.4 | CRBN Degradation ** (WB): No degradation |
| O=C1CCC(N2Cc3ccc(NC(=O)CCCCCCC(=O)Nc4ccc5c(c4)C(=O)N(C4CCC(=O)NC4=O)C5)cc3C2=O)C(=O)N1 (centres unmarked) [EC2-063, N^1,N^8-bis(2-(2,6-Dioxopiperidin-3-yl)-3-oxoisoindolin-5-yl)octanediamide] | 13.5 | 38.8 |  |
| O=C1CCC(N2Cc3ccc(NC(=O)CCCCC(=O)Nc4ccc5c(c4)C(=O)N(C4CCC(=O)NC4=O)C5)cc3C2=O)C(=O)N1 (centres unmarked) [EC2-066] | 189 |  |  |
| Cc1sc2c(c1C)C(c1ccc(Cl)cc1)=N[C@@H](CC(=O)NCCCCC(=O)Nc1cccc(C(=O)NC3CCC(=O)NC3=O)c1)c1nnc(C)n1-2 (some centres unmarked) [EC2-088] |  |  | CRBN Degradation (WB)/ IC50/DC50 Relative Density of CRBN (% of DMSO): value without qualifier (no concentration or unit printed): 43.73 ± 24.45 (1/25/19) |
| O=C1CCC(N2Cc3c(CCCCCCCCCC(=O)Nc4cccc5c4CN(C4CCC(=O)NC4=O)C5=O)cccc3C2=O)C(=O)N1 (centres unmarked) [EC2-102, N,10-bis(2-(2,6-Dioxopiperidin-3-yl)-1-oxoisoindolin-4-yl)decanamide] | 25.2 | 58.9 |  |
| Cc1nc2cccc(CCCOCCOCCCc3cccc4nc(C)n(C5CCC(=O)NC5=O)c(=O)c34)c2c(=O)n1C1CCC(=O)NC1=O (centres unmarked) [MA10-120, 3,3′-(((Ethane-1,2-diylbis(oxy))bis(propane-3,1-diyl))bis(2-methyl-4-oxoquinazoline-5,3(4H)-diyl))bis(piperidine-2,6-dione)] |  |  | remaining activity at 0.01 µM: 56.7%; remaining activity at 10 µM: 82.8% |
| CN1C(=O)CCC(N2Cc3c(CCCOCCOCCCc4cccc5c4CN(C4CCC(=O)N(C)C4=O)C5=O)cccc3C2=O)C1=O (centres unmarked) [SM3-104, 3,3′-(((Ethane-1,2-diylbis(oxy))bis(propane-3,1-diyl))bis(1-oxoisoindoline-4,2-diyl))bis(1-methylpiperidine-2,6-dione)] |  | 92.1 |  |
| O=C1CCC(NC(=O)c2cccc(NC(=O)CCCCCCC(=O)Nc3cccc(C(=O)NC4CCC(=O)NC4=O)c3)c2)C(=O)N1 (centres unmarked) [XS01-050, N^1,N^8-Bis(3-((2,6-dioxopiperidin-3-yl)carbamoyl)phenyl)octanedimide] | 20 | 168 |  |
| O=C1C[C@H](NC(=O)c2cccc(NC(=O)CCCCCCC(=O)Nc3cccc(C(=O)N[C@H]4CC(=O)NC4=O)c3)c2)C(=O)N1 [XS01-066, N^1,N^8-Bis(3-(((S)-2,5-dioxopyrrolidin-3-yl)carbamoyl)phenyl)octanediamide] | 157 |  |  |
| O=C1CCC(NC(=O)c2cccc(NC(=O)CCCCCCCCC(=O)Nc3cccc(C(=O)NC4CCC(=O)NC4=O)c3)c2)C(=O)N1 (centres unmarked) [XS01-075, N^1,N^10-Bis(3-((2,6-dioxopiperidin-3-yl)carbamoyl)phenyl)decanediamide] | 63.4 |  |  |
| O=C1C[C@H](NC(=O)CCCCCCCCC(=O)N[C@H]2CC(=O)NC2=O)C(=O)N1 [XS01-081, N^1,N^10-Bis((S)-2,5-dioxopyrrolidin-3-yl)decanediamide] | 35 |  |  |
| O=C1CCC(NC(=O)CCCCCCC(=O)NC2CCC(=O)NC2=O)C(=O)N1 (centres unmarked) [XS01-093, N^1,N^8-Bis(2,6-dioxopiperidin-3-yl)octanediamide] | 133 | 116 |  |
| O=C1CCC(NC(=O)CCCC(=O)NC2CCC(=O)NC2=O)C(=O)N1 (centres unmarked) [XS01-095, N^1,N^5-Bis(2,6-dioxopiperidin-3-yl)glutaramide] | 104 | 84.6 |  |
| O=C1CCC(N2Cc3c(NC(=O)CCCc4cn(CC(=O)Nc5cccc6c5CN(C5CCC(=O)NC5=O)C6=O)nn4)cccc3C2=O)C(=O)N1 (centres unmarked) [XS01-109, N-(2-(2,6-Dioxopiperidin-3-yl)-1-oxoisoindolin-4-yl)-4-(1-(2-((2-(2,6-dioxopiperidin-3-yl)-1-oxoisoindolin-4-yl)amino)-2-oxoethyl)-1H-1,2,3-triazol-4-yl)butanamide] | 132 | 213 |  |

Now from value to molecule, other results behind:

| remaining activity at 10 µM (10uM) [%] | remaining activity at 0.01 µM (10nM, human T cells, 24 hours) [%] | SMILES | other results |
| --- | --- | --- | --- |
| 32.2 | 55.5 | O=C1CCC(N2Cc3c(C#CCCCCCCCC(=O)Nc4cccc5c4CN(C4CCC(=O)NC4=O)C5=O)cccc3C2=O)C(=O)N1 (centres unmarked) [EC2-100, N,10-bis(2-(2,6-Dioxopiperidin-3-yl)-1-oxoisoindolin-4-yl)dec-9-ynamide] |  |
| 79.7 | 85.6 | O=C1CCC(N2Cc3c(C#CCCCC(=O)Nc4cccc5c4CN(C4CCC(=O)NC4=O)C5=O)cccc3C2=O)C(=O)N1 (centres unmarked) [EC2-108, N,6-bis(2-(2,6-Dioxopiperidin-3-yl)-1-oxoisoindolin-4-yl)hex-5-ynamide] |  |
| 9.84 | 97.5 | O=C1CCC(N2Cc3c(CCCCCC(=O)Nc4cccc5c4CN(C4CCC(=O)NC4=O)C5=O)cccc3C2=O)C(=O)N1 (centres unmarked) [EC2-109, N,6-bis(2-(2,6-Dioxopiperidin-3-yl)-1-oxoisoindolin-4-yl)hexanamide] |  |
| 74.3 | 139 | Cc1nc2cccc(NC(=O)CCCCCCC(=O)Nc3cccc4nc(C)n(C5CCC(=O)NC5=O)c(=O)c34)c2c(=O)n1C1CCC(=O)NC1=O (centres unmarked) [MA10-077, N1,N8-bis(3-(2,6-dioxopiperidin-3-yl)-2-methyl-4-oxo-3,4-dihydroquinazolin-5-yl)octanediamide] |  |
| 71 | 138 | Cc1nc2cccc(NC(=O)CCCCCCCC(=O)Nc3cccc4nc(C)n(C5CCC(=O)NC5=O)c(=O)c34)c2c(=O)n1C1CCC(=O)NC1=O (centres unmarked) [MA10-086, N1,N9-bis(3-(2,6-Dioxopiperidin-3-yl)-2-methyl-4-oxo-3,4-dihydroquinazolin-5-yl)nonanediamide] |  |
| 58.1 | 135 | Cc1nc2cccc(NC(=O)CCCCC(=O)Nc3cccc4nc(C)n(C5CCC(=O)NC5=O)c(=O)c34)c2c(=O)n1C1CCC(=O)NC1=O (centres unmarked) [MA10-088, N1,N6-bis(3-(2,6-Dioxopiperidin-3-yl)-2-methyl-4-oxo-3,4-dihydroquinazolin-5-yl)adipamide] |  |
| 82.2 | 132 | Cc1nc2cccc(NC(=O)CCCCCCCCC(=O)Nc3cccc4nc(C)n(C5CCC(=O)NC5=O)c(=O)c34)c2c(=O)n1C1CCC(=O)NC1=O (centres unmarked) [MA10-090, N1,N10-bis(3-(2,6-Dioxopiperidin-3-yl)-2-methyl-4-oxo-3,4-dihydroquinazolin-5-yl)decanediamide] |  |
| 21.4 | 5.13 | Cc1nc2cccc(NCc3ccc(CNc4cccc5nc(C)n(C6CCC(=O)NC6=O)c(=O)c45)cc3)c2c(=O)n1C1CCC(=O)NC1=O (centres unmarked) [MA10-112] |  |
| 72.6 | 56.5 | Cc1nc2cccc(NC(=O)CCCCCC(=O)Nc3cccc4nc(C)n(C5CCC(=O)NC5=O)c(=O)c34)c2c(=O)n1C1CCC(=O)NC1=O (centres unmarked) [MA10-121, N1,N7-bis(3-(2,6-Dioxopiperidin-3-yl)-2-methyl-4-oxo-3,4-dihydroquinazolin-5-yl)heptanediamide] |  |
| 61.1 | 54.2 | Cc1nc2cccc(NCc3cccc(CNc4cccc5nc(C)n(C6CCC(=O)NC6=O)c(=O)c45)n3)c2c(=O)n1C1CCC(=O)NC1=O (centres unmarked) [MA10-126, 3,3′-(((Pyridine-2,6-diylbis(methylene))bis(azanediyl))bis(2-methyl-4-oxoquinazoline-5,3(4H)-diyl))bis(piperidine-2,6-dione)] |  |
| 208 | 14.8 | Cc1nc2cccc(C#CCOCCOCCOCC#Cc3cccc4nc(C)n(C5CCC(=O)NC5=O)c(=O)c34)c2c(=O)n1C1CCC(=O)NC1=O (centres unmarked) [MA10-153, 3,3′-((((Oxybis(ethane-2,1-diyl))bis(oxy))bis(prop-1-yne-3,1-diyl))bis(2-methyl-4-oxoquinazoline-5,3(4H)-diyl))bis(piperidine-2,6-dione)] | CRBN Degradation ** (WB): No Degradation |
| 38.1 | 3.42 | O=C1CC[C@H](N2Cc3c(CCCOCCOCCCc4cccc5c4CN([C@H]4CCC(=O)NC4=O)C5=O)cccc3C2=O)C(=O)N1 [XS01-011, (3S,3'S)-3,3′-(((Ethane-1,2-diylbisbis(oxy))bisbis(propane-3,1-diyl))bisbis(1-oxoisoindoline-4,2-diyl))bisbis(piperidine-2,6-dione)] |  |
| 93 | 12.1 | Cc1nc2c(NCc3ccc(CNc4cccc5c(=O)n(C6CCC(=O)NC6=O)c(C)nc45)cc3)cccc2c(=O)n1C1CCC(=O)NC1=O (centres unmarked) [XS01-030, 3,3′-(((1,4-Phenylenebis(methylene))bis(azanediyl))bis(2-methyl-4-oxoquinazoline-8,3(4H)-diyl))bis(piperidine-2,6-dione)] |  |
| 133 | 29 | Cc1nc2cccc(CCc3ccc(CCc4cccc5nc(C)n(C6CCC(=O)NC6=O)c(=O)c45)cc3)c2c(=O)n1C1CCC(=O)NC1=O (centres unmarked) [XS01-038, 3,3′-((1,4-Phenylenebis(ethane-2,1-diyl))bis(2-methyl-4-oxoquinazoline-5,3(4H)-diyl))bis(piperidine-2,6-dione)] | CRBN Degradation ** (WB): No degradation |
| 356 | 69.2 | Cc1nc2c(NC(=O)c3ccc(C(=O)Nc4cccc5c(=O)n(C6CCC(=O)NC6=O)c(C)nc45)cc3)cccc2c(=O)n1C1CCC(=O)NC1=O (centres unmarked) [XS01-059] | CRBN Degradation ** (WB): No Degradation |

From patent US20250288573A1 (H. LEE MOFFITT CANCER CENTER AND RESEARCH INSTITUTE, INC., priority 2018, published 2025)
